Results from ChEMBL document CHEMBL1201862, “PubChem BioAssay data set” (2004).
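Briefly, cells in 96-well plates were exposed to five compound concentrations for 48 h, and endpoints were estimated by linear interpolation. Here, GI50 denotes the concentration required for 50% inhibition of growth.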 Calls of active or inactive are those of the source. Rule as the data show it: active = GI50 up to about 1.1 µM and inactive = higher.

Columns and labels:
Test in all cases: growth of human tumour cells (NCI), 48 h
A498 = test system: A498
CCRF-CEM = test system: CCRF-CEM
DMS-114 = test system: DMS-114
HOP-62 = test system: HOP-62
HOP-92 = test system: HOP-92
HT-29 = test system: HT-29
IGROV-1 = test system: IGROV-1
LOX IMVI = test system: LOX IMVI
Malme-3M = test system: Malme-3M
NCI-H226 = test system: NCI-H226
NCI-H23 = test system: NCI-H23
OVCAR-8 = test system: OVCAR-8
SF-295 = test system: SF-295
SN12C = test system: SN12C
SNB-19 = test system: SNB-19
TK-10 = test system: TK-10
OVCAR-5 = test system: OVCAR-5
SK-MEL-2 = test system: SK-MEL-2

Measured: GI50

COc1nc2c(nc(N)n2C2OC(CO)C(O)C(O)C2O)c(=O)n1C (stereo unspecified)
inactive: A498 > 100 µM | CCRF-CEM > 100 µM | DMS-114 > 100 µM | HOP-62 > 100 µM | HOP-92 > 100 µM | HT-29 > 100 µM | IGROV-1 > 100 µM | LOX IMVI > 100 µM | Malme-3M > 100 µM | NCI-H226 > 100 µM | NCI-H23 > 100 µM | OVCAR-8 > 100 µM | SF-295 > 100 µM | SN12C > 100 µM | SNB-19 > 100 µM | TK-10 > 100 µM

Oc1c(-c2ccccc2)nc2ccccn12
inactive: A498 > 100 µM | CCRF-CEM > 100 µM | DMS-114 > 100 µM | HOP-62 > 100 µM | HT-29 > 100 µM | IGROV-1 > 100 µM | Malme-3M > 100 µM | NCI-H226 > 100 µM | NCI-H23 > 100 µM | OVCAR-5 > 100 µM | OVCAR-8 > 100 µM | SF-295 > 100 µM | SK-MEL-2 > 100 µM | SN12C > 100 µM | SNB-19 > 100 µM | TK-10 > 100 µM

O=C1O[C@@H](c2ccc3c(c2)OCO3)C2C(=O)O[C@@H](c3ccc4c(c3)OCO4)C12 (stereo partly specified)
inactive: A498 > 100 µM | CCRF-CEM > 100 µM | DMS-114 > 100 µM | HOP-62 > 100 µM | HOP-92 > 100 µM | HT-29 > 100 µM | IGROV-1 > 100 µM | LOX IMVI > 100 µM | NCI-H226 > 100 µM | NCI-H23 > 100 µM | OVCAR-8 > 100 µM | SF-295 > 100 µM | SK-MEL-2 > 100 µM | SN12C > 100 µM | SNB-19 > 100 µM | TK-10 > 100 µM

Oc1ccc(Br)cc1/C=N/c1ccc(/N=C/c2cc(Br)ccc2O)cc1
inactive: A498 > 100 µM | CCRF-CEM > 100 µM | DMS-114 > 100 µM | HOP-92 > 100 µM | HT-29 > 100 µM | IGROV-1 > 100 µM | LOX IMVI > 100 µM | Malme-3M > 100 µM | NCI-H226 > 100 µM | NCI-H23 > 100 µM | OVCAR-5 > 100 µM | OVCAR-8 > 100 µM | SF-295 > 100 µM | SK-MEL-2 > 100 µM | SN12C > 100 µM | SNB-19 > 100 µM | TK-10 > 100 µM

CCOC(=O)NC(=O)c1cn(CCCCCCCCCCC(=O)NCCCN2CCN(CCCNC(=O)CCCCCCCCCCn3cc(C(=O)NC(=O)OCC)c(=O)[nH]c3=O)CC2)c(=O)[nH]c1=O
inactive: A498 > 100 µM | CCRF-CEM > 100 µM | DMS-114 > 100 µM | HOP-62 > 10 µM | HOP-92 > 100 µM | HT-29 > 100 µM | LOX IMVI > 100 µM | Malme-3M > 100 µM | NCI-H23 > 100 µM | OVCAR-5 > 100 µM | OVCAR-8 > 100 µM | SF-295 > 100 µM | SK-MEL-2 > 100 µM | SN12C > 100 µM | SNB-19 > 100 µM | TK-10 > 100 µM

Nc1nc(-c2ccc(Cl)c([N+](=O)[O-])c2)cs1
inactive: A498 20 µM | CCRF-CEM > 100 µM | DMS-114 64.7 µM | HOP-62 > 100 µM | HOP-92 16.2 µM | HT-29 > 100 µM | IGROV-1 > 100 µM | LOX IMVI > 100 µM | Malme-3M > 100 µM | NCI-H23 73.5 µM | OVCAR-5 > 100 µM | OVCAR-8 > 100 µM | SF-295 45.9 µM | SK-MEL-2 > 100 µM | SN12C > 100 µM | SNB-19 68.2 µM | TK-10 > 100 µM

CCOC(=O)C(C)c1cc(C2(C)OCCO2)c(C)o1 (stereo unspecified)
inactive: CCRF-CEM > 100 µM | DMS-114 > 100 µM | HOP-62 > 100 µM | HOP-92 8.63 µM | IGROV-1 > 100 µM | LOX IMVI > 100 µM | Malme-3M > 100 µM | NCI-H23 > 100 µM | OVCAR-5 > 100 µM | OVCAR-8 > 100 µM | SF-295 > 100 µM | SK-MEL-2 > 100 µM | SN12C > 100 µM | SNB-19 > 100 µM | TK-10 > 100 µM

COC(=O)C(CCC1(C)OCCO1)=[N+]=[N-]
inactive: A498 > 100 µM | CCRF-CEM > 100 µM | DMS-114 > 100 µM | HOP-62 > 100 µM | HT-29 > 100 µM | IGROV-1 > 100 µM | LOX IMVI > 100 µM | Malme-3M > 100 µM | NCI-H226 > 100 µM | NCI-H23 > 100 µM | OVCAR-5 > 100 µM | OVCAR-8 > 100 µM | SF-295 > 100 µM | SK-MEL-2 > 100 µM | SN12C > 100 µM | SNB-19 > 100 µM | TK-10 > 100 µM

CCOC(=O)C1=C(C)N(NC(=O)Nc2ccccc2)C(=O)C1=P(c1ccccc1)(c1ccccc1)c1ccccc1
inactive: A498 29.5 µM | CCRF-CEM 26.1 µM | DMS-114 32.2 µM | HOP-62 > 100 µM | HOP-92 31 µM | HT-29 52.2 µM | IGROV-1 29.6 µM | LOX IMVI 41.2 µM | Malme-3M 36.2 µM | NCI-H226 50 µM | NCI-H23 41.6 µM | OVCAR-5 > 100 µM | OVCAR-8 40 µM | SF-295 48.4 µM | SK-MEL-2 22.4 µM | SN12C 28.1 µM | SNB-19 > 100 µM | TK-10 56.5 µM

CCOC(=O)N(c1ccccc1)N(CC)C(=O)/C(C)=N/Nc1ccc([N+](=O)[O-])cc1
inactive: A498 14.3 µM | CCRF-CEM 17.2 µM | DMS-114 17.9 µM | HOP-62 16.1 µM | HOP-92 15.5 µM | HT-29 17.1 µM | IGROV-1 17.3 µM | Malme-3M 17.6 µM | NCI-H226 22 µM | NCI-H23 18 µM | OVCAR-8 17.4 µM | SF-295 16.6 µM | SK-MEL-2 16 µM | SN12C 17.3 µM | SNB-19 16.2 µM

c1cc(C2O[C@H]3CCCN3[C@@H]2c2ccncc2)ccn1 (stereo partly specified)
inactive: A498 > 100 µM | CCRF-CEM > 100 µM | DMS-114 > 100 µM | HOP-62 > 100 µM | HT-29 > 100 µM | IGROV-1 > 100 µM | LOX IMVI > 100 µM | Malme-3M > 100 µM | NCI-H226 > 100 µM | NCI-H23 > 100 µM | OVCAR-5 > 100 µM | OVCAR-8 > 100 µM | SF-295 > 100 µM | SK-MEL-2 > 100 µM | SN12C > 100 µM | SNB-19 > 100 µM | TK-10 > 100 µM

COc1ccc(C(O)c2cc(OC)c(OC)c(OC)c2)cc1 (stereo unspecified)
inactive: A498 25.9 µM | CCRF-CEM 20 µM | DMS-114 6.84 µM | HOP-62 26.3 µM | HOP-92 27.3 µM | HT-29 7.16 µM | IGROV-1 18 µM | LOX IMVI 17.2 µM | Malme-3M 23.7 µM | NCI-H226 32.4 µM | OVCAR-5 > 100 µM | OVCAR-8 30.3 µM | SF-295 6.44 µM | SN12C 42.8 µM | SNB-19 42.4 µM | TK-10 31.3 µM
